Test results published in paper PMC5601486, “Identification of 4-phenylquinolin-2(1H)-one as a specific allosteric inhibitor of Akt” (Scientific Reports, 2017).

How the values were obtained:
DAPK3 = assay: KINOMEscan; settings: 50000 nM
Description: KINOMEscan™ selectivity screen
(§1) Briefly, Kinase-tagged T7 phage strains were grown in parallel in an E. coli host derived from the BL21 strain. E. coli were grown to log-phase and infected with T7 phage from a frozen stock and incubated with shaking at 32°C until lysis (90-150 minutes). The kinases were produced in HEK-293 cells and subsequently tagged with DNA for qPCR detection. Streptavidin-coated magnetic beads were treated with biotinylated small molecule ligands to generate affinity resins for kinase
(§2) inhibitor or DMSO control was performed in polypropylene 384-well plates for 1 hr at room temperature. After wash with PBS buffer containing 0.05% Tween 20, the beads were incubated in elution buffer (PBS containing 0.05 % Tween 20 and 0.5 μM non-biotinylated affinity ligand) for 30 minutes at room temperature. The kinase concentration in the eluates was measured by qPCR.

[1] = tested on: JAK2(JH1domain-catalytic); assay: KINOMEscan; settings: 50000 nM
Description: KINOMEscan™ selectivity screen
as §1, §2

CSNK2A1 = assay: KINOMEscan; settings: 50000 nM
Description: KINOMEscan™ selectivity screen
(§3) The assay was perfor med at DiscoveRx Corporation according the methods published previously5. Briefly, Kinase-tagged T7 phage strains were grown in parallel in an E. coli host derived from the BL21 strain. E. coli were grown to log-phase and infected with T7 phage from a frozen stock and incubated with shaking at 32°C until lysis (90-150 minutes). The kinases were produced in HEK-293 cells and subsequently tagged with DNA for qPCR detection. Streptavidin-coated magnetic beads were treated with biotinylated small molecule ligands to generate affinity resins for kinase
as §2

SBK1 = assay: KINOMEscan; settings: 50000 nM
Description: KINOMEscan™ selectivity screen
as §3, §2

PIK3CA(Q546K) = assay: KINOMEscan; settings: 50000 nM
Description: KINOMEscan™ selectivity screen
as §1, §2

NEK6 = assay: KINOMEscan; settings: 50000 nM
Description: KINOMEscan™ selectivity screen
as §3, §2

PKC = assay: Western blot of PKC phosphorylation; assay type: cell-based, Mouse; settings: Neuro 2A cells
Description: Neuro 2A cells were seeded in 12-well plates in DMEM containing 5% FBS for 24 hr.
After overnight serum starvation (in 0% FBS DMEM), cells were incubated for 30 min at 37 °C with G7 or LY294002 or Torin 1 (Sigma Aldrich) at various concentrations, or DMSO control. IGF-1 was added to each well at a final concentration of 100 ng/mL. After 30-min incubation cells were washed with cold PBS and lysed with 50 µL lysis buffer containing 1% Triton X-100 and protease/phosphatase inhibitors (Cell Signaling Technology) or RIPA buffer (Santa Cruz Biotech). Samples were electrophoresed in 4–12% Bis-Tris gels (Life Technologies) at 150 V using MOPS SDS running buffer. Proteins were transferred electrophoretically to a PVDF or nitrocellulose membrane. For detection of cleaved […]
caspase 3 a Trans-Blot Turbo Transfer System (Bio-Rad, 25 V for 25 min) with PVDF membrane were used. […]
anti- GAPDH (14C10) antibody (#2118) (all antibodies were from Cell Signaling Technology unless indicated, 1:1000 dilution was used) at 4°C overnight, washed three times with TBS-T, then incubated with peroxidase-conjugated secondary antibody (Sigma-Aldrich) for 1 hr at room temperature. […] Band intensity was quantitated using Kodak 1D imaging analysis software. […]

CDK3 = assay: KINOMEscan; settings: 50000 nM
Description: KINOMEscan™ selectivity screen
as §1, §2

ACVR1 = assay: KINOMEscan; settings: 50000 nM
Description: KINOMEscan™ selectivity screen
as §3, §2

Akt-PIP3 association = tested on: T1, Akt-PIP3 association; assay: PIP3-Akt pull-down assay; assay type: binding; settings: inactive Akt, PIP3 beads
T1 construct: purchased Millipore 14-279
Description: according to the method reported previously6. Briefly, the lipids dissolved in methanol/chloroform were mixed at desired proportions and dried with a N2 steam.
The lipid mixture was redissolved in 2 mL cyclohexane containing 75 μM BHT (2,6-di-tert-butyl-p-cresol) and lyophilized under vacuum. Unilamellar vesicles were obtained by reconstituting the dried sample with 1 mL of PBS (pH 7.4) containing 50 μM DTPA (diethylenetriamine pentaacetic acid) followed by extrusion with 0.1 μm polycarbonate membrane (Corning, Inc.). For in vitro phosphorylation of Akt, 1 μL […]
mixture was resolved on SDS gel followed by western blot analysis.
The assay was performed using a protocol published previously7.
(50 ng) in PBS containing 400 ng/mL BSA was incubated with inhibitor G7 or a PI analog (EMD Millipore, #124005) for 2 hr at 4 °C. 25 µL PIP3 beads (Echelon, #P-B345a) was added to the sample and incubated overnight at 4 °C. The beads were washed with washing buffer containing 10 mM HEPES (pH 7.5), 0.25% NP-40 and 150 mM NaCl. Akt was eluted with 2x LDS and measured by immunoblotting.
Chemical cross-linking and mass spectrometry

[2] = tested on: ABL1(Y253F)-phosphorylated; assay: KINOMEscan; settings: 50000 nM
Description: KINOMEscan™ selectivity screen
as §3, §2

GRK7 = assay: KINOMEscan; settings: 50000 nM
Description: KINOMEscan™ selectivity screen
The assay was perfor med at DiscoveRx Corporation according the methods published previously5. […] The kinases were produced in HEK-293 cells and subsequently tagged with DNA for qPCR detection. Streptavidin-coated magnetic beads were treated with biotinylated small molecule ligands to generate affinity resins for kinase
as §2

Oc1cc(-c2ccccc2)c2ccccc2n1 [G7, 4-phenylquinolin-2(1H)-one]
Percent Control (DAPK3): 74%
Percent Control [1]: 61%
Percent Control (CSNK2A1): 78%
Percent Control (SBK1): 86%
Percent Control (PIK3CA(Q546K)): 83%
Percent Control (NEK6): 92%
phosphorylation (activation status) of PKC (PKC): did not alter
Percent Control (CDK3): 88%
Percent Control (ACVR1): 100%
effect on the Akt-PIP3 association (Akt-PIP3 association): insignificant effect
Percent Control [2]: 56%
Percent Control (GRK7): 52%
